ChEMBL document CHEMBL2028040, “Malaria Box”

Columns and labels:
[1] = system: Plasmodium falciparum; experiment: MMV: Inhibition of Plasmodium falciparum 3D7 (EC50).; format: functional, organism-based
[2] = system: Plasmodium falciparum; experiment: MMV: Inhibition of Plasmodium falciparum 3D7 at 5uM compound concentration.; format: functional
[3] = system: Trypanosoma brucei brucei; experiment: MMV: Inhibition of Trypanosoma brucei brucei (Squib 427) (HAT in vitro).; format: functional, organism-based
[4] = MMV: Cytotoxicity against human fibroblasts (MRC-5) cells.; details: MRC-5 cells (human fibroblasts)
[5] = system: Plasmodium falciparum; experiment: MMV: Inhibition of Plasmodium falciparum K1 (EC50).; format: functional, organism-based
[6] = system: Trypanosoma cruzi; experiment: MMV: Inhibition of Trypanosoma cruzi (Tulahuen C4 LacZ) (Chagas in vitro).; format: functional, organism-based
[7] = system: Leishmania infantum; experiment: MMV: Inhibition of Leishmania infantum (MHOM/MA/BE/67) in vitro.; format: functional, organism-based
[8] = system: Trypanosoma brucei rhodesiense; experiment: MMV: Inhibition of Trypanosoma brucei rhodesiense (STIB 900) (HAT in vitro).; format: functional, organism-based

SMILES | EC50 [1] [nM] | inhibition at 5 µM [2] [%] | IC50 [3] [µM] | IC50 [4] [µM] | EC50 [5] [nM] | IC50 [6] [µM] | IC50 [7] [µM] | IC50 [8] [µM]
O=C(Nc1ccc(Cl)c(Cl)c1)Nc1ccc(Cl)c(Cl)c1 | 1160 | 96 | 2.5 | > 32 | 1260 | 3.82 | 10.6 | 2.17
O=C1c2ccccc2-c2nnc(-c3ccc(Br)cc3)cc21 | 1070 | 99 | > 32 | > 32 | 798 | > 32 | > 32 | > 32
CCCCCC(=O)N1c2ccccc2N=C2CC(c3ccc(OC)c(OC)c3)CC(O)=C2C1c1ccc(C(F)(F)F)cc1 (stereo unspecified) | 237 | 100 | 4.06 | > 32 | 288 | 12.1 | 25.4 | 1.69
N=c1n(CCN2CCCCC2)c2ccccc2n1CC(O)c1cccc(Br)c1 (stereo unspecified) | 893 | 98 | 2.77 | 27.6 | 1400 | 4.17 | 4 | 1.01
COc1ccc(-c2nc(NC(=O)CS(=O)(=O)c3ccc(F)cc3)sc2C)cc1 | 448 | 97 | 16 | > 32 | 1280 | 16.8 | > 32 | 16.1
FC(F)(F)c1cccc(Nc2nc3ccccc3nc2Nc2cccc(C(F)(F)F)c2)c1 | 313 | 99 | 3.78 | 9.31 | 501 | 3.75 | 4.06 | 4
Cc1ccc(C(=O)c2oc3ccc4c(C)cc(=O)oc4c3c2C)cc1 | 906 | 96 | > 32 | 21.2 | 1040 | > 32 | > 32 | > 32
COc1cccc(NC(=O)[C@H](C(C)C)n2c(=O)[nH]c3ccccc3c2=O)c1 | 139 | 99 | 4.32 | > 32 | 203 | 9.22 | 5.66 | 1.05
COc1cccc(NC(=O)Cn2c(C)c(C#N)c3ccccc32)c1 | 1090 | 95 | > 32 | > 32 | 1480 | > 32 | > 32 | 20.2
CCC(c1ccccc1)c1nn2c(-c3cccs3)nnc2s1 (stereo unspecified) | 259 | 99 | 16.1 | > 32 | 916 | 4.09 | 12 | 13.1
O=C(CCl)NCCOc1ccc(Cl)cc1Cl | 555 | 94 | 11.6 | 16.2 | 1000 | 19.1 | 10.2 | 6.83
CC(C)(C)c1ccc(O)c(CNC2CCCCC2)c1 | 161 | 96 | 3.78 | > 32 | 45.8 | 21.2 | 16 | 4
CCCCNc1nc(NC(C)(C)C)nc(NC(C)(C)C)n1 | 706 | 98 | 1.33 | > 32 | 705 | 9.19 | 2.97 | 2
CCOC(=O)c1c(NC(=O)c2ccccc2)sc2c(O)c(CN(CC)CC)ccc12 | 205 | 96 | > 32 | > 32 | 114 | > 32 | 16.2 | > 32
CCOc1cc(Cl)c(C(C)NC(=O)c2cccc(OC)c2)cc1OCC (stereo unspecified) | 728 | 98 | > 32 | 6.59 | 1360 | 18.7 | > 32 | 21
Cc1cc(Nc2ccc(C)c(Cl)c2)n2nc(C(F)(F)F)nc2n1 | 6.71 | 98 | > 32 | > 32 | 14.1 | 22.9 | > 32 | 15.9
Nc1ccc(-c2nc3cc(Cc4ccc5[nH]c(-c6ccc(N)cc6)nc5c4)ccc3[nH]2)cc1 | 1420 | 100 | 1.89 | 11.4 | 1290 | 4.54 | > 32 | 2.27
CC(=O)c1sc(NC(=O)Nc2ccc(C)cc2C)nc1C | 536 | 64 | > 32 | > 32 | 502 | > 32 | > 32 | > 32
CCCCOC(=O)c1ccc(Nc2cc(C)nc3ccc(OC)cc23)cc1 | 584 | 99 | 3.94 | 14.3 | 2140 | 3.67 | 4.76 | 3.51

SMILES | EC50 [1] [nM] | inhibition at 5 µM [2] [%] | IC50 [3] [µM] | IC50 [4] [µM] | EC50 [5] [nM] | IC50 [6] [µM] | IC50 [7] [µM] | IC50 [8] [µM]
Cn1c(=O)n(C)c2cc(CNCCNc3ccnc4cc(Cl)ccc34)ccc21 | 545 | 90 | 11.5 | > 32 | 1510 | 16.9 | 17.3 | 0.419
CC(NCc1ccccc1)c1cc(Cl)ccc1O (stereo unspecified) | 603 | 95 | > 32 | > 32 | 243 | > 32 | > 32 | 16
O=c1cc(NC2CCN(CCCc3ccccc3)CC2)c2cc(Cl)ccc2o1 | 846 | 97 | 15 | > 32 | 532 | 15.6 | 10.1 | 4.09
COc1ccc(C=C2SC(Nc3ccc(F)cc3)=NC2=O)c(OC)c1 | 591 | 92 | > 32 | > 32 | 825 | > 32 | > 32 | > 32
COc1ccccc1CNC(=O)CCn1c(=O)[nH]c2ccccc2c1=O | 72.6 | 64 | > 32 | > 32 | 190 | > 32 | > 32 | > 32
CCCCNCC(O)(c1ccc(Cl)cc1)c1ccc(Cl)cc1 | 843 | 97 | 3.27 | > 32 | 525 | 14.3 | 13.6 | 3.86
COc1ccccc1NC1=C(N2CCCCC2)C(=O)c2ccccc2C1=O | 5.3 | 98 | 1.01 | 9.88 | 10 | < 0.125 | 3.01 | 0.315
Oc1c(C(Nc2ccccn2)c2cccc(Oc3ccccc3)c2)ccc2cccnc12 (stereo unspecified) | 1010 | 97 | 1.01 | 3.89 | 1070 | 1.05 | 1 | 0.972
CCOC(=O)c1cn(CC)c2cc(N3CCCCC3)c(F)cc2c1=O | 119 | 100 | > 32 | > 32 | 259 | > 32 | > 32 | > 32
CCCc1cc(O)c2c3c(c(=O)oc2c1)CN(C)CC3 | 146 | 97 | > 32 | > 32 | 80.7 | > 32 | > 32 | > 32
OC(CNC1CCCCC1)Cn1c2ccc(I)cc2c2cc(I)ccc21 (stereo unspecified) | 466 | 97 | 0.877 | 4.03 | 298 | 0.902 | 1.59 | 0.784
CCOc1ccc(-c2nonc2NC(=O)c2cccc(C)c2)cc1OCC | 117 | 86 | > 32 | > 32 | 127 | > 32 | > 32 | > 32
COc1ccc2c(=O)cc(C(Cl)(Cl)Cl)oc2c1 | 520 | 94 | 16.9 | 7.58 | 550 | 0.432 | 16.2 | > 32
CCOc1ccc(/C=C/c2nc(=O)c3ccccc3o2)cc1 | 560 | 95 | > 32 | > 32 | 893 | 17.9 | > 32 | 30.5
O=C(Nc1ccc(F)c(Cl)c1)Nc1ccc(Cl)c(Cl)c1 | 2060 | 95 | 3.94 | 4.51 | 2130 | 3.7 | 16.2 | 3.33
COc1ccc(CN2CCN(Cc3ccccc3)CC2)c(O)c1 | 1080 | 96 | > 32 | > 32 | 789 | > 32 | > 32 | > 32
CC1CC2=C(CC1CNCCCN(C)C)C(C)(C)CCC2 (stereo unspecified) | 1000 | 98 | < 0.125 | 4.15 | 1000 | 1.08 | 3.01 | < 0.125
Cc1c(C)n(CC(O)CNC2CCCCC2C)c2ccccc12 (stereo unspecified) | 769 | 96 | 3.84 | > 32 | 438 | > 32 | > 32 | 1.01
